PubChem BioAssay (NCI)
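Following 48 hours of exposure in 96-well plates, responses at five concentrations were used to interpolate endpoints linearly. TGI: total growth inhibition.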

Key:
Test in all cases: NCI tumour cell line growth inhibition, 48 h
SR leukemia = system: SR leukemia
RXF 393 renal = system: RXF 393 renal
SF-268 CNS = system: SF-268 CNS
NCI/ADR-RES ovarian = system: NCI/ADR-RES ovarian
SW-620 colon = system: SW-620 colon
SK-MEL-2 melanoma = system: SK-MEL-2 melanoma
KM12 colon = system: KM12 colon
HS 578T breast = system: HS 578T breast
COLO 205 colon = system: COLO 205 colon
SK-MEL-28 melanoma = system: SK-MEL-28 melanoma
EKVX NSCLC = system: EKVX NSCLC
CCRF-CEM leukemia = system: CCRF-CEM leukemia
A549 NSCLC = system: A549 NSCLC
OVCAR-5 ovarian = system: OVCAR-5 ovarian
SNB-75 CNS = system: SNB-75 CNS
NCI-H226 lung = system: NCI-H226 lung
HOP-92 NSCLC = system: HOP-92 NSCLC
LOX IMVI melanoma = system: LOX IMVI melanoma
786-0 renal = system: 786-0 renal
HCT-116 colon = system: HCT-116 colon
NCI-H23 lung = system: NCI-H23 lung
BT-549 breast = system: BT-549 breast
OVCAR-4 ovarian = system: OVCAR-4 ovarian
A498 renal = system: A498 renal
IGROV1 ovarian = system: IGROV1 ovarian
PC-3 prostate = system: PC-3 prostate
HT29 colon = system: HT29 colon
SN12C renal = system: SN12C renal
MCF7 breast = system: MCF7 breast
DU-145 prostate = system: DU-145 prostate
M14 melanoma = system: M14 melanoma
UACC-257 melanoma = system: UACC-257 melanoma
TK-10 renal = system: TK-10 renal
MALME-3M melanoma = system: MALME-3M melanoma
MDA-MB-231 breast = system: MDA-MB-231 breast
ACHN renal = system: ACHN renal
SF-295 CNS = system: SF-295 CNS
UACC-62 melanoma = system: UACC-62 melanoma
HCT-15 colon = system: HCT-15 colon
HCC-2998 colon = system: HCC-2998 colon
CAKI-1 renal = system: CAKI-1 renal
U251 CNS = system: U251 CNS
SK-MEL-5 melanoma = system: SK-MEL-5 melanoma
RPMI-8226 leukemia = system: RPMI-8226 leukemia
HOP-62 NSCLC = system: HOP-62 NSCLC
OVCAR-8 ovarian = system: OVCAR-8 ovarian
SNB-19 CNS = system: SNB-19 CNS
MDA-N = system: MDA-N
UO-31 renal = system: UO-31 renal
NCI-H460 lung = system: NCI-H460 lung
NCI-H522 lung = system: NCI-H522 lung
SF-539 CNS = system: SF-539 CNS
MDA-MB-435 = system: MDA-MB-435
SK-OV-3 ovarian = system: SK-OV-3 ovarian
OVCAR-3 ovarian = system: OVCAR-3 ovarian
HL-60(TB) leukemia = system: HL-60(TB) leukemia
K-562 leukemia = system: K-562 leukemia
MOLT-4 leukemia = system: MOLT-4 leukemia

**Q.** What does the source list for CCOP(=O)(OCC)/C(C#N)=C/c1nc[nH]c1C?
**A.** TGI (SR leukemia): > 100 µM; TGI (RXF 393 renal): > 100 µM; TGI (SF-268 CNS): > 100 µM; TGI (NCI/ADR-RES ovarian): > 100 µM; TGI (SW-620 colon): > 100 µM; TGI (SK-MEL-2 melanoma): > 100 µM; TGI (KM12 colon): > 100 µM; TGI (HS 578T breast): > 100 µM; TGI (COLO 205 colon): > 100 µM; TGI (SK-MEL-28 melanoma): > 100 µM; TGI (EKVX NSCLC): > 100 µM; TGI (CCRF-CEM leukemia): > 100 µM; TGI (A549 NSCLC): > 100 µM; TGI (OVCAR-5 ovarian): > 100 µM; TGI (SNB-75 CNS): > 100 µM; TGI (NCI-H226 lung): > 100 µM; TGI (HOP-92 NSCLC): > 100 µM; TGI (LOX IMVI melanoma): > 100 µM; TGI (786-0 renal): > 100 µM; TGI (HCT-116 colon): > 100 µM; TGI (NCI-H23 lung): > 100 µM; TGI (BT-549 breast): > 100 µM; TGI (OVCAR-4 ovarian): > 100 µM; TGI (A498 renal): > 100 µM; TGI (IGROV1 ovarian): > 100 µM; TGI (PC-3 prostate): > 100 µM; TGI (HT29 colon): > 100 µM; TGI (SN12C renal): > 100 µM; TGI (MCF7 breast): > 100 µM; TGI (DU-145 prostate): > 100 µM; TGI (M14 melanoma): > 100 µM; TGI (UACC-257 melanoma): > 100 µM; TGI (TK-10 renal): > 100 µM; TGI (MALME-3M melanoma): > 100 µM; TGI (MDA-MB-231 breast): > 100 µM; TGI (ACHN renal): > 100 µM; TGI (SF-295 CNS): > 100 µM; TGI (UACC-62 melanoma): > 100 µM; TGI (HCT-15 colon): > 100 µM; TGI (HCC-2998 colon): > 100 µM; TGI (CAKI-1 renal): > 100 µM; TGI (U251 CNS): > 100 µM; TGI (SK-MEL-5 melanoma): > 100 µM; TGI (RPMI-8226 leukemia): > 100 µM; TGI (HOP-62 NSCLC): > 100 µM; TGI (OVCAR-8 ovarian): > 100 µM; TGI (SNB-19 CNS): > 100 µM; TGI (MDA-N): > 100 µM; TGI (UO-31 renal): > 100 µM; TGI (NCI-H460 lung): > 100 µM; TGI (NCI-H522 lung): > 100 µM; TGI (SF-539 CNS): > 100 µM; TGI (MDA-MB-435): > 100 µM; TGI (SK-OV-3 ovarian): > 100 µM; TGI (OVCAR-3 ovarian): > 100 µM; TGI (HL-60(TB) leukemia): > 100 µM; TGI (K-562 leukemia): > 100 µM; TGI (MOLT-4 leukemia): > 100 µM

**Q.** With CN1CCN(c2n[nH]c(=O)c3c2nnn3Cc2ccccc2)CC1 as the compound, how does the TGI (SR leukemia) read?
**A.** The TGI was greater than 100 µM.

**Q.** And the TGI (RXF 393 renal)?
**A.** The TGI was greater than 100 µM.

**Q.** And the TGI (SF-268 CNS)?
**A.** The TGI was greater than 100 µM.

**Q.** What about the TGI (NCI/ADR-RES ovarian) of the same compound?
**A.** The TGI was greater than 100 µM.

**Q.** And the TGI (SK-MEL-2 melanoma)?
**A.** The TGI was greater than 100 µM.

**Q.** What about the TGI (KM12 colon) of the same compound?
**A.** The TGI was greater than 100 µM.

**Q.** And the TGI (COLO 205 colon)?
**A.** Its TGI is greater than 100 µM.

**Q.** What about the TGI (SK-MEL-28 melanoma) of the same compound?
**A.** Its TGI is greater than 100 µM.

**Q.** What about the TGI (EKVX NSCLC) of the same compound?
**A.** Its TGI is greater than 100 µM.

**Q.** And the TGI (CCRF-CEM leukemia)?
**A.** The TGI was greater than 100 µM.

**Q.** What about the TGI (A549 NSCLC) of the same compound?
**A.** Its TGI is greater than 100 µM.

**Q.** What about the TGI (SNB-75 CNS) of the same compound?
**A.** Its TGI is greater than 100 µM.

**Q.** What about the TGI (HOP-92 NSCLC) of the same compound?
**A.** Its TGI is greater than 100 µM.

**Q.** And the TGI (LOX IMVI melanoma)?
**A.** Its TGI is greater than 100 µM.

**Q.** What about the TGI (786-0 renal) of the same compound?
**A.** The TGI was greater than 100 µM.

**Q.** What about the TGI (HCT-116 colon) of the same compound?
**A.** The TGI was greater than 100 µM.

**Q.** What about the TGI (NCI-H23 lung) of the same compound?
**A.** The TGI was greater than 100 µM.

**Q.** And the TGI (BT-549 breast)?
**A.** The TGI was greater than 100 µM.

**Q.** What about the TGI (OVCAR-4 ovarian) of the same compound?
**A.** The TGI was greater than 100 µM.

**Q.** And the TGI (PC-3 prostate)?
**A.** The TGI was 37.1 µM.

**Q.** What about the TGI (HT29 colon) of the same compound?
**A.** The TGI was greater than 100 µM.

**Q.** What about the TGI (SN12C renal) of the same compound?
**A.** Its TGI is greater than 100 µM.

**Q.** What about the TGI (MCF7 breast) of the same compound?
**A.** The TGI was greater than 100 µM.

**Q.** What about the TGI (DU-145 prostate) of the same compound?
**A.** The TGI was greater than 100 µM.

**Q.** What about the TGI (M14 melanoma) of the same compound?
**A.** Its TGI is greater than 100 µM.

**Q.** What about the TGI (UACC-257 melanoma) of the same compound?
**A.** Its TGI is greater than 100 µM.

**Q.** And the TGI (TK-10 renal)?
**A.** The TGI was greater than 100 µM.

**Q.** And the TGI (MALME-3M melanoma)?
**A.** The TGI was greater than 100 µM.

**Q.** What about the TGI (MDA-MB-231 breast) of the same compound?
**A.** The TGI was greater than 100 µM.

**Q.** And the TGI (ACHN renal)?
**A.** Its TGI is greater than 100 µM.

**Q.** And the TGI (SF-295 CNS)?
**A.** Its TGI is greater than 100 µM.

**Q.** And the TGI (HCT-15 colon)?
**A.** The TGI was greater than 100 µM.

**Q.** What about the TGI (HCC-2998 colon) of the same compound?
**A.** The TGI was greater than 100 µM.

**Q.** And the TGI (CAKI-1 renal)?
**A.** The TGI was greater than 100 µM.

**Q.** And the TGI (U251 CNS)?
**A.** Its TGI is greater than 100 µM.

**Q.** And the TGI (SK-MEL-5 melanoma)?
**A.** Its TGI is greater than 100 µM.

**Q.** And the TGI (RPMI-8226 leukemia)?
**A.** Its TGI is greater than 100 µM.

**Q.** What about the TGI (HOP-62 NSCLC) of the same compound?
**A.** Its TGI is greater than 100 µM.

**Q.** What about the TGI (OVCAR-8 ovarian) of the same compound?
**A.** Its TGI is greater than 100 µM.

**Q.** And the TGI (SNB-19 CNS)?
**A.** The TGI was greater than 100 µM.

**Q.** What about the TGI (MDA-N) of the same compound?
**A.** Its TGI is 40.1 µM.

**Q.** What about the TGI (UO-31 renal) of the same compound?
**A.** Its TGI is greater than 100 µM.

**Q.** And the TGI (NCI-H460 lung)?
**A.** The TGI was greater than 100 µM.

**Q.** And the TGI (MDA-MB-435)?
**A.** The TGI was greater than 100 µM.

**Q.** And the TGI (OVCAR-3 ovarian)?
**A.** Its TGI is greater than 100 µM.

**Q.** And the TGI (HL-60(TB) leukemia)?
**A.** Its TGI is greater than 100 µM.

**Q.** And the TGI (K-562 leukemia)?
**A.** Its TGI is greater than 100 µM.

**Q.** What about the TGI (MOLT-4 leukemia) of the same compound?
**A.** Its TGI is greater than 100 µM.
